Measurements from patent publication US20240287025A1, “TETRAHYDROQUINOLINE (THQ) COUMPOUNDS” (Centre National de la Recherche Scientifique, priority 2021, published 2024).

Legend:
Brd4 BD1 = Brd4 BD1 (Homo sapiens (Human), UniProt O60885); assay: HTRF evaluation of bromodomain inhibitors, Brd4 BD1; format: binding; settings: H4ac4 peptide 50 nM, 4 h at 4° C.
Protocol: (§1) HTRF reagents and buffers were purchased from Cisbio Bioassays. The assay used a terbium (Ill) cryptate donor reagent conjugated to an anti-GST antibody (MAb anti-GST-Tb; GSTTLA), a streptavidin-conjugated acceptor reagent (streptavidin-d2) and Cisbio proprietary buffers (EPlgeneous Binding Domain Diluent and Detection buffer, respectively). GST-tagged bromodomains (BDs) were expressed in E. coli and purified using standard procedures. Incubation of GST-tagged BDs with biotinylated acetylated H4 peptide (H4K5acK8acK12acK16ac, here named H4ac4) brings the donor and acceptor into close proximity and allows for a FRET reaction. GST-tagged proteins in 25 mM Hepes pH 7.5, 150 mM NaCl, 0.5 mM DTT were assayed at a final concentration of 5 nM. Biotinylated H4ac4 peptides were used at a final concentration of 50, 600 nM in assays involving Brd4 BD1, Brd4 BD2, respectively. The antibody-conjugated donor was used at 0.5 nM and the streptavidin-conjugated acceptor was used at ⅛ of the H4ac4 peptide concentration. Inhibitors were tested by performing an eleven-point dilution series with a maximal final concentration of […]. These concentrations allowed a fixed DMSO concentration at 0.2%, critical for a Z′ factor ≥0.8. Components were incubated at 4° C. for 4 h (BD1) or for 24 h (BD2). Experiments were performed in 384-well white plates (Greiner ref. 781080) and analyzed in a ClarioStar plate reader (BMG LABTECH, excitation at 330 nm and emission at 620 and 665 nm, corresponding to the donor and acceptor emission peaks, respectively; the 665/620 ratio is used to calculate the specific HTRF signal) with an integration delay of 60 μs and an integration time of 400 μs.

Brd4 BD2 = Brd4 BD2 (Homo sapiens (Human), UniProt O60885); assay: HTRF evaluation of bromodomain inhibitors, Brd4 BD2; format: binding; settings: for IC50: HTRF, H4ac4 peptide 600 nM, 24 h at 4° C.; for Selectivity BD2/BD1: ratio of the BD1 and BD2 IC50
Protocol: as §1

Structure (SMILES) | IC50 (Brd4 BD1) [nM] | IC50 (Brd4 BD2) [nM] | Selectivity BD2/BD1 (Brd4 BD2)
CC[C@@H]1[C@H](C)[C@@H](N=[N+]=[N-])c2cc(C(=O)OC)ccc2N1C(C)=O (single isomer, unassigned) [ent-27] | > 100000 | > 100000 | –
CC[C@@H]1[C@H](C)[C@@H](n2cc(-c3ccccc3)nn2)c2cc(C(=O)OC)ccc2N1C(C)=O (single isomer, unassigned) [ent-28] | > 100000 | 51400 | –
CC[C@H]1[C@@H](C)[C@H](N=[N+]=[N-])c2cc(C(=O)OC)ccc2N1C(C)=O [Compound 27, Methyl-(2S,3R,4S)-1-acetyl-4-azido-2-ethyl-3-methyl-1,2,3,4-tetrahydroquinoline-6-carboxylate] | 17700 | 1880 | 9.4
CC[C@H]1[C@@H](C)[C@H](n2cc(-c3ccccc3)nn2)c2cc(C(=O)OC)ccc2N1C(C)=O [Compound 28, Methyl-(2S,3R,4S)-1-acetyl-2-ethyl-3-methyl-4-(4-phenyl-1H-1,2,3-triazol-1-yl)-1,2,3,4-tetrahydroquinoline-6-carboxylate] | 8310 | 567 | 14.7
CC[C@H]1[C@H](C)[C@@H](N=[N+]=[N-])c2cc(C(=O)OC)ccc2N1C(C)=O [Compound 30, Methyl-(2S,3S,4R)-1-acetyl-4-azido-2-ethyl-3-methyl-1,2,3,4-tetrahydroquinoline-6-carboxylate] | > 20000 | > 20000 | –
CC[C@H]1[C@H](C)[C@@H](n2cc(-c3ccccc3)nn2)c2cc(C(=O)OC)ccc2N1C(C)=O [Compound 31, Methyl-(2S,3S,4R)-1-acetyl-2-ethyl-3-methyl-4-(4-phenyl-1H-1,2,3-triazol-1-yl)-1,2,3,4-tetrahydroquinoline-6-carboxylate] | > 200000 | 14900 | –
C#CCOCCOCCOCCOCc1cn([C@H]2c3cc(C(=O)OC)ccc3N(C(C)=O)[C@@H](CC)[C@@H]2C)nn1 [Compound 32, Methyl-(2S,3S,4R)-4-(4-(2,5,8,11-tetraoxatetradec-13-yn-1-yl)-1H-1,2,3-triazol-1-yl)-1-acetyl-2-ethyl-3-methyl-1,2,3,4-tetrahydroquinoline-6-carboxylate] | > 20000 | > 20000 | –
C=CCCCC(=O)Nc1ccc(-c2ccc3c(c2)[C@@H](N=[N+]=[N-])[C@H](C)[C@H](CC)N3C(C)=O)cc1 [XC, N-(4-((2S,3R,4S)-1-acetyl-4-azido-2-ethyl-3-methyl-1,2,3,4-tetrahydroquinolin-6-yl)phel)hex-5-enamide] | 3100 | 2230 | 1.4
C=CCCCC(=O)Nc1ccc(-c2ccc3c(c2)[C@@H](n2cc(CCCCC)nn2)[C@H](C)[C@H](CC)N3C(C)=O)cc1 [XE, N-(4-((2S,3R,4S)-1-acetyl-2-ethyl-3-methyl-4-(4-pentyl-1H-1,2,3-triazol-1-yl)-1,2,3,4-tetrahydroquinolin-6-yl)phenyl)hex-5-enamide] | 4080 | 3180 | 1.3
CCCCCc1cn([C@@H]2c3cc(C(=O)OC)ccc3N(C(C)=O)[C@@H](CC)[C@H]2C)nn1 [XF, Methyl (2S,3R,4S)-1-acetyl-2-ethyl-3-methyl-4-(4-pentyl-1H-1,2,3-triazol-1-yl)-1,2,3,4-tetrahydroquinoline-6-carboxylate] | 30000 | 1930 | 15.6
C=CCCCC(=O)Nc1ccc(-c2ccc3c(c2)[C@@H](NC(=O)OC(C)C)[C@H](C)[C@H](CC)N3C(C)=O)cc1 [XI, Isopropyl-((2S,3S,4S)-1-acetyl-2-ethyl-6-(4-(hex-5-enamido)phenyl)-3-methyl-1,2,3,4-tetrahydroquinolin-4-yl)carbamate] | 2680 | 2170 | 1.2
CC[C@H]1[C@@H](C)[C@H](NC(=O)OC(C)C)c2cc(C(=O)OC)ccc2N1C(C)=O [XJ, Methyl-(2S,3S,4S)-1-acetyl-2-ethyl-4-((isopropoxycarbonyl)amino)-3-methyl-1,2,3,4-tetrahydroquinoline-6-carboxylate] | 24200 | 1880 | 12.8
C=CCCCC(=O)Nc1ccc(-c2ccc3c(c2)[C@@H](Nc2ncc(Cl)cn2)[C@H](C)[C@H](CC)N3C(C)=O)cc1 [XK, N-(4-((2S,3S,4S)-1-acetyl-4-((5-chloropyrimidin-2-yl)amino)-2-ethyl-3-methyl-1,2,3,4-tetrahydroquinolin-6-yl)phenyl)hex-5-enamide] | 3140 | 1330 | 2.4
CC[C@H]1[C@@H](C)[C@H](Nc2ncc(Cl)cn2)c2cc(C(=O)OC)ccc2N1C(C)=O [XL, Methyl (2S,3S,4S)-1-acetyl-4-((5-chloropyrimidin-2-yl)amino)-2-ethyl-3-methyl-1,2,3,4-tetrahydroquinoline-6-carboxylate] | 10100 | 1130 | 9.0
CC[C@H]1[C@@H](C)[C@H](n2cc(-c3ccc(OC)cc3)nn2)c2cc(C(=O)OC)ccc2N1C(C)=O [XM, Methyl (2S,3R,4S)-1-acetyl-2-ethyl-4-(4-(4-methoxyphenyl)-1H-1,2,3-triazol-1-yl)-3-methyl-1,2,3,4-tetrahydroquinoline-6-carboxylate] | 2980 | 563 | 5.3
CC[C@H]1[C@@H](C)[C@H](n2cc(-c3ccc(C(F)(F)F)cc3)nn2)c2cc(C(=O)OC)ccc2N1C(C)=O [XN, Methyl (2S,3R,4S)-1-acetyl-2-ethyl-3-methyl-4-(4-(4-(trifluoromethyl)phenyl)-1H-1,2,3-triazol-1-yl)-1,2,3,4-tetrahydroquinoline-6-carboxylate] | 14500 | 1910 | 7.6
CC[C@H]1[C@@H](C)[C@H](n2cc(C3CCCCC3)nn2)c2cc(C(=O)OC)ccc2N1C(C)=O [XO, Methyl-(2S,3R,4S)-1-acetyl-4-(4-cyclohexyl-1H-1,2,3-triazol-1-yl)-2-ethyl-3-methyl-1,2,3,4-tetrahydroquinoline-6-carboxylate] | 5520 | 860 | 6.4
C#CCOCCOCc1cn([C@@H]2c3cc(C(=O)OC)ccc3N(C(C)=O)[C@@H](CC)[C@H]2C)nn1 [XP, Methyl-(2S,3R,4S)-1-acetyl-2-ethyl-3-methyl-4-(4-((2-(prop-2-yn-1-yloxy)ethoxy)methyl)-1H-1,2,3-triazol-1-yl)-1,2,3,4-tetrahydroquinoline-6-carboxylate] | ~30000 | 2260 | 13.2
C#CCOCCOCCOCCOCc1cn([C@@H]2c3cc(C(=O)OC)ccc3N(C(C)=O)[C@@H](CC)[C@H]2C)nn1 [XR, Methyl-(2S,3R,4S)-4-(4-(2,5,8,11-tetraoxatetradec-13-yn-1-yl)-1H-1,2,3-triazol-1-yl)-1-acetyl-2-ethyl-3-methyl-1,2,3,4-tetrahydroquinoline-6-carboxylate] | > 100000 | 2360 | –
C#CCOCCOCCOCCOCCOCc1cn([C@@H]2c3cc(C(=O)OC)ccc3N(C(C)=O)[C@@H](CC)[C@H]2C)nn1 [XS, Methyl-(2S,3R,4S)-4-(4-(2,5,8,11,14-pentaoxaheptadec-16-yn-1-yl)-1H-1,2,3-triazol-1-yl)-1-acetyl-2-ethyl-3-methyl-1,2,3,4-tetrahydroquinoline-6-carboxylate] | ~30000 | 1300 | 23.1
C#CCOCCOCCOCCOCCOCCOCc1cn([C@@H]2c3cc(C(=O)OC)ccc3N(C(C)=O)[C@@H](CC)[C@H]2C)nn1 [XT, Methyl-(2S,3R,4S)-4-(4-(2,5,8,11,14,17-hexaoxaicos-19-yn-1-yl)-1H-1,2,3-triazol-1-yl)-1-acetyl-2-ethyl-3-methyl-1,2,3,4-tetrahydroquinoline-6-carboxylate] | ~35000 | 2040 | 17.2
CC[C@H]1[C@@H](C)[C@H](n2cc(-c3ccccc3)nn2)c2cc(C(F)(F)F)ccc2N1C(C)=O [YC, 1-((2S,3R,4S)-2-Ethyl-3-methyl-4-(4-phenyl-1H-1,2,3-triazol-1-yl)-6-(trifluoromethyl)-3,4-dihydroquinolin-1(2H)-yl)ethan-1-one] | – | 22500 | –
CC[C@H]1[C@@H](C)[C@H](N=[N+]=[N-])c2cc(-c3ccc(NC(=O)CCCCCCC(=O)NO)cc3)ccc2N1C(C)=O [YH, N-(4-((2S,3R,4S)-1-acetyl-4-azido-2-ethyl-3-methyl-1,2,3,4-tetrahydroquinolin-6-yl)phenyl)-N-hydroxyoctanediamide] | – | – | 1.6
